Patent US10766869B2, “Triazoles for the treatment of demyelinating dieases” (Vertex Pharmaceuticals Incorporated, priority 2015, dated 2020)

Test system: primary rat mixed cortical cells
Assay: In vitro myelination assay (MBP positive myelin strands, fold myelin pixels above background)
Assay type: cell-based
Settings: Rattus norvegicus, relative to baseline of no added compound, read-out: Fold myelin pixels above background; for fold induction at 1 µM: 1.0 μM compound; for fold induction at 10 µM: 10.0 μM compound
Summary of the method: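 Fourteen-day treatment of primary P1 rat mixed cortical cultures, re-dosed at days 6 and 10, at 1.0 μM and 10.0 μM. MBP immunofluorescence was imaged at 10× and myelin strands quantified by software, normalised to untreated wells as fold above background.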

| Compound | fold induction at 1 µM | fold induction at 10 µM |
| --- | --- | --- |
| Cc1cc(Nc2ncn(-c3cc(F)cc(F)c3)n2)cc(C2CCNCC2O)c1 (stereo not drawn) [Compound 438, 4-[3-[[1-(3,5-difluorophenyl)-1,2,4-triazol-3-yl]amino]-5-methyl-phenyl]piperidin-3-ol] | 10 to 100 | ≤ 1 |
| CSc1cccc(-n2cnc(Nc3cc(C)cc(N4CCN(C5COC5)CC4)c3)n2)c1 [Compound 439, N-[3-methyl-5-[4-(oxetan-3-yl)piperazin-1-yl]phenyl]-1-(3-methylsulfanylphenyl)-1,2,4-triazol-3-amine] | 1 to 10 | 1 to 10 |
| Fc1cc(Nc2ncn(-c3ccc(F)c(F)c3)n2)cc(N2CCOCC2)c1 [Compound 440, 1-(3,4-difluorophenyl)-N-(3-fluoro-5-morpholino-phenyl)-1,2,4-triazol-3-amine] | 10 to 100 | 10 to 100 |
| Fc1cc(Nc2ncn(-c3ccc(C(F)(F)F)cc3)n2)cc(N2CCCC2)c1 [Compound 441, N-(3-fluoro-5-pyrrolidin-1-yl-phenyl)-1-[4-(trifluoromethyl)phenyl]-1,2,4-triazol-3-amine] | 1 to 10 | ≤ 1 |
| Cc1cc(Nc2ncn(-c3cc(F)cc(F)c3)n2)cc(C2CCCN(C3CC(C(=O)O)C3)C2)c1 (stereo not drawn) [Compound 442, 3-[3-[3-[[1-(3,5-difluorophenyl)-1,2,4-triazol-3-yl]amino]-5-methyl-phenyl]-1-piperidyl]cyclobutanecarboxylic acid] | 10 to 100 | 10 to 100 |
| CC(=O)N1CCC(c2cc(C)cc(Nc3ncn(-c4ccccc4)n3)c2)C1 (stereo not drawn) [Compound 443, 1-[3-[3-methyl-5-[(1-phenyl-1,2,4-triazol-3-yl)amino]phenyl]pyrrolidin-1-yl]ethanone] | 1000 to 10000 | ≤ 1 |
| Cc1cc(Nc2ncn(-c3cc(F)cc(F)c3)n2)cc(N2CCC3(COC3)C2)c1 [Compound 444, 1-(3,5-difluorophenyl)-N-[3-methyl-5-(2-oxa-7-azaspiro[3.4]octan-7-yl)phenyl]-1,2,4-triazol-3-amine] | ≤ 1 | 1 to 10 |
| Cc1cc(Nc2ncn(-c3cccc(F)c3F)n2)cc(N2CCN(C3COC3)CC2)c1 [Compound 445, 1-(2,3-difluorophenyl)-N-[3-methyl-5-[4-(oxetan-3-yl)piperazin-1-yl]phenyl]-1,2,4-triazol-3-amine] | 10 to 100 | 10 to 100 |
| Cc1cc(Nc2ncn(-c3ccccc3Cl)n2)cc(N2CCN(C3COC3)CC2)c1 [Compound 446, 1-(2-chlorophenyl)-N-[3-methyl-5-[4-(oxetan-3-yl)piperazin-1-yl]phenyl]-1,2,4-triazol-3-amine] | 1 to 10 | 1000 to 10000 |
| Cc1cc(Nc2ncn(-c3cncc(F)c3)n2)cc(C2COC2)c1 [Compound 447, 1-(5-fluoro-3-pyridyl)-N-[3-methyl-5-(oxetan-3-yl)phenyl]-1,2,4-triazol-3-amine] | 10 to 100 | 10 to 100 |
| Cc1cc(Nc2ncn(-c3cc(F)cc(F)c3)n2)cc(NC2CC2)c1 [Compound 448, N1-cyclopropyl-N3-[1-(3,5-difluorophenyl)-1,2,4-triazol-3-yl]-5-methyl-benzene-1,3-diamine] | 100 to 1000 | 1 to 10 |
| CC(=O)N1CCCC(c2cc(C)cc(Nc3ncn(-c4ccncn4)n3)c2)C1 (stereo not drawn) [Compound 449, 1-[3-[3-methyl-5-[(1-pyrimidin-4-yl-1,2,4-triazol-3-yl)amino]phenyl]-1-piperidyl]ethanone] | 100 to 1000 | ≤ 1 |
| CN1CCN(c2cc(F)cc(Nc3ncn(-c4ccc(F)cc4F)n3)c2)CC1 [Compound 450, 1-(2,4-difluorophenyl)-N-[3-fluoro-5-(4-methylpiperazin-1-yl)phenyl]-1,2,4-triazol-3-amine] | ≤ 1 | ≤ 1 |
| Cc1cc(N2CCOCC2)cc(Nc2ncn(-c3cccnc3)n2)c1F [Compound 451, N-(2-fluoro-3-methyl-5-morpholino-phenyl)-1-(3-pyridyl)-1,2,4-triazol-3-amine] | 1 to 10 | 100 to 1000 |
| Fc1cc(Nc2ncn(-c3ccccc3)n2)cc(C2CCNC2)c1 (stereo not drawn) [Compound 452, N-(3-fluoro-5-pyrrolidin-3-yl-phenyl)-1-phenyl-1,2,4-triazol-3-amine] | 10 to 100 | ≤ 1 |
| Cc1cc(Nc2ncn(-c3cc(F)cc(F)c3)n2)cc(N2CCN(C3CC(F)(F)C3)CC2)c1 [Compound 453, N-[3-[4-(3,3-difluorocyclobutyl)piperazin-1-yl]-5-methyl-phenyl]-1-(3,5-difluorophenyl)-1,2,4-triazol-3-amine] | 10 to 100 | 1000 to 10000 |
| Cc1nccc(-n2cnc(Nc3cc(C4CC4)cc(N4CCN(C5COC5)CC4)c3)n2)n1 [Compound 454, N-[3-cyclopropyl-5-[4-(oxetan-3-yl)piperazin-1-yl]phenyl]-1-(2-methylpyrimidin-4-yl)-1,2,4-triazol-3-amine] | ≤ 1 | 1 to 10 |
| Cc1cc(Nc2ncn(-c3ccccc3)n2)cc(N2CCN(c3ccccc3F)CC2)c1 [Compound 455, N-[3-[4-(2-fluorophenyl)piperazin-1-yl]-5-methyl-phenyl]-1-phenyl-1,2,4-triazol-3-amine] | ≤ 1 | 10 to 100 |
| Fc1cc(F)cc(-n2cnc(Nc3cc(C4CCOC4)cc(N4CCOCC4)c3)n2)c1 (stereo not drawn) [Compound 456, 1-(3,5-difluorophenyl)-N-(3-morpholino-5-tetrahydrofuran-3-yl-phenyl)-1,2,4-triazol-3-amine] | 1000 to 10000 | 100 to 1000 |
| Cc1cc(Nc2ncn(-c3cc(F)cc(F)c3)n2)cc(N2CCC(F)CC2)n1 [Compound 457, N-[1-(3,5-difluorophenyl)-1,2,4-triazol-3-yl]-2-(4-fluoro-1-piperidyl)-6-methyl-pyridin-4-amine] | 1000 to 10000 | 1000 to 10000 |
| Cc1cc(Nc2ncn(-c3cc(F)cc(F)c3)n2)cc(N2CCN(C(=O)C3CC3)CC2)c1 [Compound 458] | 1000 to 10000 | 100 to 1000 |
| Cc1cc(Nc2ncn(-c3cc(F)cc(F)c3)n2)cc(N2C[C@H]3C[C@@H]2CN3C)c1 [Compound 459, 1-(3,5-difluorophenyl)-N-[3-methyl-5-[(1R,4R)-5-methyl-2,5-diazabicyclo[2.2.1]heptan-2-yl]phenyl]-1,2,4-triazol-3-amine] | 10 to 100 | ≤ 1 |
| F[C@H]1CCN(c2cc(Nc3ncn(-c4ccccc4)n3)cc(C3CC3)n2)C1 [Compound 460, 2-cyclopropyl-6-[(3S)-3-fluoropyrrolidin-1-yl]-N-(1-phenyl-1,2,4-triazol-3-yl)pyridin-4-amine] | 100 to 1000 | 10 to 100 |
| Cc1cc(Nc2ncn(-c3ccccc3)n2)cc(N2CCN(CC(C)(C)O)CC2)c1 [Compound 461, 2-methyl-1-[4-[3-methyl-5-[(1-phenyl-1,2,4-triazol-3-yl)amino]phenyl]piperazin-1-yl]propan-2-ol] | 1000 to 10000 | ≤ 1 |
